# Measurements reported in US9452980B2, “Substituted benzamides” (Hoffmann-La Roche Inc., priority 2009, dated 2016).
# Structures can show the parent of a compound that is named as a salt. Where two headings read alike, the source gives them in different places.
# Columns and labels:
# mouse TAAR1 = mouse TAAR1 (Mus musculus (Mouse), UniProt Q923Y8); test: Radioligand binding assay on mouse TAAR1; settings: read-out: Ki (μM) mouse
# How it was run: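 Displacement of the tritiated oxazol-2-ylamine radioligand was measured by filtration and scintillation counting after 1 h incubation at 4 °C. Test concentrations ran 10 pM–10 μM in duplicate, with 10 μM cold ligand giving nonspecific binding. The receptor source was membranes of a stable mouse TAAR1 HEK293 line.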
# rat TAAR1 = rat TAAR1 (Rattus norvegicus (Rat), UniProt Q923Y9); test: Radioligand binding assay on rat TAAR1; settings: read-out: Ki (μM) rat
# How it was run: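 Membranes from HEK293 cells stably expressing rat TAAR1, with Kd checked per batch by saturation. Competition with ³H-(S)-4-[(ethyl-phenyl-amino)-methyl]-4,5-dihydro-oxazol-2-ylamine, compounds 10 pM–10 μM in duplicate, 1 hr at 4 °C. Filtration then scintillation counting; nonspecific binding defined with 10 μM unlabeled ligand.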
# [1] = mouse TAAR1, HEK-293 membranes, first value of cell mouse/rat
# [2] = rat TAAR1, HEK-293 membranes, second value of cell mouse/rat
# Sequence of mouse TAAR1 (Q923Y8 whole entry): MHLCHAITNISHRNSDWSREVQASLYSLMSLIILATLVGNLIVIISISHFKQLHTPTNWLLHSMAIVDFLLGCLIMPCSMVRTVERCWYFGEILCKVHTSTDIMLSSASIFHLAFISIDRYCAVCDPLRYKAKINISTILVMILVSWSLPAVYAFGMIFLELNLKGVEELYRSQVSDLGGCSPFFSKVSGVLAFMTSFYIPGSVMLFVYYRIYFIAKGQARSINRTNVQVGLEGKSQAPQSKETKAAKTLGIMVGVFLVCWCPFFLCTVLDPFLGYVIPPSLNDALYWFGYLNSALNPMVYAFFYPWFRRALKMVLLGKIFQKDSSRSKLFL
# Sequence of rat TAAR1 (Q923Y9 whole entry): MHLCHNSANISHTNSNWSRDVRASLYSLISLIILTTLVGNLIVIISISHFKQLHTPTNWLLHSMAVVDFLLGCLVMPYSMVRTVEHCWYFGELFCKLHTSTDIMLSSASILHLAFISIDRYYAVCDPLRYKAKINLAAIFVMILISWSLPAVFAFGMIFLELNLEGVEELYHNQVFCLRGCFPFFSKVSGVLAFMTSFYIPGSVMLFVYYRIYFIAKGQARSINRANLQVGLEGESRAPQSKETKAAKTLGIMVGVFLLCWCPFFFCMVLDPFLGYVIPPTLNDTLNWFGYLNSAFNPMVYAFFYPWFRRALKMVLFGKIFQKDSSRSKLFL
SMILES,Ki (mouse TAAR1; [1]) [µM],Ki (rat TAAR1; [2]) [µM],Ki (rat TAAR1) [µM],Ki (mouse TAAR1) [µM]
"O=C(Nc1ccc(C2CCNC2)cc1)OCCc1cccc(C(F)(F)F)c1 (racemic) [Example 123, (RS)-(4-Pyrrolidin-3-yl-phenyl)-carbamic acid 2-(3-trifluoromethyl-phenyl)-ethyl ester]",0.0014,0.0022,–,–
"O=C(Nc1ccc(C2CCNC2)cc1)c1ccc(Cl)cc1F (racemic) [Example 77, (RS)-4-Chloro-2-fluoro-N-(4-pyrrolidin-3-yl-phenyl)-benzamide hydrochloride]",0.0017,0.0238,–,–
"CCOc1ccc(C(=O)Nc2ccc([C@@H]3CNCCO3)cc2)cc1 [Example 275, (R)-4-Ethoxy-N-(4-(morpholin-2-yl)phenyl)benzamide hydrochloride]",0.0082,–,0.0036,–
"CCOc1cc(C(=O)Nc2ccc(C3CNCCO3)cc2)ccn1 (racemic) [Example 300, (RS)-2-Ethoxy-N-(4-(morpholin-2-yl)phenyl)isonicotinamide hydrochloride]",0.0726,0.002,–,–
"O=C(Nc1ccc([C@H]2CCCNC2)cc1)c1cnc(Cl)cn1 [Example 239, 5-Chloro-pyrazine-2-carboxylic acid ((R)-4-piperidin-3-yl-phenyl)-amide hydrochloride]",–,0.0085,–,0.0396
"CCCCc1ccc(NC(=O)Nc2ccc(C3CCNC3)cc2)c(C)c1 (racemic) [Example 1, (RS)-1-(4-Butyl-2-methyl-phenyl)-3-(4-pyrrolidin-3-yl-phenyl)-urea; hydrochloride]",0.0056,0.0072,–,–
"CCOc1ccc(C(=O)Nc2ccc(C3CNCCO3)cc2)cc1 (racemic) [Example 197, (RS)-4-Ethoxy-N-(4-(morpholin-2-yl)phenyl)benzamide hydrochloride]",0.0177,–,0.0016,–
"COC(=O)c1ccc(COc2ccc(C(=O)Nc3ccc(C4CNCCO4)cc3)cc2)cc1 (racemic) [Example 211, (RS)-Methyl 4-((4-(4-(morpholin-2-yl)phenylcarbamoyl)phenoxy)methyl)benzoate hydrochloride]",0.004,0.0009,–,–
"Cc1ccc(C(=O)Nc2ccc([C@@H]3CCCNC3)cc2)cc1Cl [Example 225, (S)-3-Chloro-4-methyl-N-(4-(piperidin-3-yl)phenyl)benzamide hydrochloride]",–,0.0006,–,0.0189
"CCCc1ccc(C(=O)Nc2ccc([C@@H]3CCCNC3)cc2)cn1 [Example 289, (S)—N-(4-(Piperidin-3-yl)phenyl)-6-propylnicotinamide]",0.143,–,0.0027,–
"O=C(Nc1ccc([C@@H]2CCNC2)cc1)c1ccc(OCC(F)(F)F)nc1 [Example 205, (S)—N-(4-(Pyrrolidin-3-yl)phenyl)-6-(2,2,2-trifluoroethoxy)nicotinamide hydrochloride]",0.0034,0.0035,–,–
"O=C(Nc1ccc(C2CNCCO2)cc1)c1coc(-c2ccccc2)n1 (racemic) [Example 249, (RS)—N-(4-(Morpholin-2-yl)phenyl)-2-phenyloxazole-4-carboxamide hydrochloride]",0.0025,0.0024,–,–
"O=C(Nc1ccc(C2CNCCO2)cc1)c1cc(Cl)nc(Cl)c1 (racemic) [Example 221, (RS)-2,6-Dichloro-N-(4-(morpholin-2-yl)phenyl)isonicotinamide hydrochloride]",–,–,0.0037,0.005
"O=C(Nc1ccc(C2CCNC2)cc1)c1cnc(Cl)cn1 (racemic) [Example 163, (RS)-5-Chloro-N-(4-(pyrrolidin-3-yl)phenyl)pyrazine-2-carboxamide hydrochloride]",0.0573,0.0121,–,–
"COc1ccc(C(=O)Nc2ccc(C3CCNC3)cc2)nc1 (racemic) [Example 94, (RS)-5-Methoxy-pyridine-2-carboxylic acid (4-pyrrolidin-3-yl-phenyl)-amide hydrochloride]",–,0.379,–,0.0601
"O=C(Nc1ccc(C2CNCCO2)cc1)c1cccc(Cl)c1 (racemic) [Example 209, (RS)-3-chloro-N-(4-(morpholin-2-yl)phenyl)benzamide hydrochloride]",0.0078,0.0016,–,–
"O=C(Nc1ccc(C2CCN(Cc3ccccc3)C2)cc1)c1ccc(Cl)cc1 (racemic) [Example 34, (RS)—N-[4-(1-Benzyl-pyrrolidin-3-yl)-phenyl]-4-chloro-benzamide]",0.0269,0.214,–,–
"COc1ccc(C(=O)Nc2ccc([C@@H]3CCCNC3)cc2)cc1Cl [Example 203, (S)-3-Chloro-4-methoxy-N-(4-(piperidin-3-yl)phenyl)benzamide hydrochloride]",–,–,0.0014,0.0603
"O=C(Nc1ccc(C2CCCCN2)cc1)c1ccc(Cl)cc1 (racemic) [Example 159, (RS)-4-Chloro-N-(4-piperidin-2-yl-phenyl)-benzamide hydrochloride]",6.38,0.63,–,–

SMILES,Ki (mouse TAAR1; [1]) [µM],Ki (rat TAAR1; [2]) [µM],Ki (rat TAAR1) [µM],Ki (mouse TAAR1) [µM]
"CSc1ccc(C(=O)Nc2ccc(C3CNCCO3)cc2)cc1 (stereo in doubt) [Example 267, (S)-4-(Methylthio)-N-(4-(morpholin-2-yl)phenyl)benzamide hydrochloride]",0.0476,–,0.0011,–
"C#Cc1ccc(C(=O)Nc2ccc(CCC3CCCCN3)cc2)cc1 (racemic) [Example 177, (RS)-4-Ethynyl-N-(4-(2-(piperidin-2-yl)ethyl)phenyl)benzamide hydrochloride]",0.114,0.0067,–,–
"O=C(Nc1ccc(C2CCCNC2)cc1)c1cccc(Cl)c1 (racemic) [Example 92, (RS)-3-Chloro-N-(4-piperidin-3-yl-phenyl)-benzamide hydrochloride]",0.0238,0.0238,–,–
"O=C(Nc1ccc(CCC2CCCN2)cc1)c1ccc(F)cn1 (racemic) [Example 166, (RS)-5-Fluoro-N-(4-(2-(pyrrolidin-2-yl)ethyl)phenyl)picolinamide hydrochloride]",0.394,0.0212,–,–
"COc1ccc(C(=O)Nc2ccc(C3CCCNC3)cc2)cc1 (racemic) [Example 186, (RS)-4-Methoxy-N-(4-(piperidin-3-yl)phenyl)benzamide hydrochloride]",0.0486,0.0027,–,–
"O=C(Nc1ccc(C2CCNCC2)cc1)c1ccc(Cl)cc1 [Example 57, 4-Chloro-N-(4-piperidin-4-yl-phenyl)-benzamide hydrochloride]",0.0055,0.0005,–,–
"Cc1ccc(CNC(=O)Nc2ccc(C3CNCCO3)cc2)cc1 (racemic) [Example 306, (RS)-1-(4-Methylbenzyl)-3-(4-(morpholin-2-yl)phenyl)urea hydrochloride]",0.0266,0.0038,–,–
"O=C(Nc1ccc(C2CCNC2)cc1)OCc1ccc(F)cc1 (racemic) [Example 47, (RS)-(4-Pyrrolidin-3-yl-phenyl)-carbamic acid 4-fluoro-benzyl ester hydrochloride]",0.0019,0.0048,–,–
"CCOc1ccc(C(=O)Nc2ccc([C@@H]3CCCNC3)cc2)cn1 [Example 256, (S)-6-Ethoxy-N-(4-(piperidin-3-yl)phenyl)nicotinamide]",1.17,0.012,–,–
"O=C(Nc1ccc(CCC2CCNC2)cc1)c1ncc(F)cc1F (racemic) [Example 133, (RS)-3,5-Difluoro-pyridine-2-carboxylic acid [4-(2-pyrrolidin-3-yl-ethyl)-phenyl]-amide hydrochloride]",1.52,0.0174,–,–
"C[C@@H]1CO[C@@H](c2ccc(NC(=O)c3cccc(Cl)c3)cc2)CN1 [Example 323, 3-Chloro-N-[4-((2S,5R)-5-methyl-morpholin-2-yl)-phenyl]-benzamide hydrochloride]",–,–,0.0013,0.0592
"O=C(Nc1ccc(C2CCCNC2)cc1)c1ccc(Cl)cc1 (racemic) [Example 58, (RS)-4-Chloro-N-(4-piperidin-3-yl-phenyl)-benzamide hydrochloride]",0.0007,0.0022,–,–
"O=C(Nc1ccc(CCC2CCCNC2)cc1)Nc1ccc(Cl)cn1 (racemic) [Example 115, (RS)-1-(5-Chloro-pyridin-2-yl)-3-[4-(2-piperidin-3-yl-ethyl)-phenyl]-urea hydrochloride]",0.32,0.0118,–,–
"Cc1cccc(C(=O)Nc2ccc(C3CNCCO3)cc2)c1 (racemic) [Example 277, (RS)-3-Methyl-N-(4-(morpholin-2-yl)phenyl)benzamide hydrochloride]",–,0.0036,–,0.0472
"O=C(Nc1ccc(C2CCNC2)cc1)c1nccc2ccsc12 (racemic) [Example 93, (RS)-Thieno[2,3-c]pyridine-7-carboxylic acid (4-pyrrolidin-3-yl-phenyl)-amide hydrochloride]",0.04,0.173,–,–
"O=C(Nc1ccc([C@@H]2CCCNC2)cc1)c1cccc(C(F)(F)F)c1 [Example 234, (S)—N-(4-(Piperidin-3-yl)phenyl)-3-(trifluoromethyl)benzamide hydrochloride]",–,–,0.001,0.0217
"O=C(Nc1ccc([C@@H]2CNCCO2)cc1)c1ccc(Cl)cc1 [Example 143, 4-Chloro-N—((R)-4-morpholin-2-yl-phenyl)-benzamide hydrochloride]",–,–,0.0006,0.0054
"O=C(Nc1ccc([C@@H]2CNCCO2)cc1)c1ccc(Cl)nc1 [Example 207, (R)-6-Chloro-N-(4-(morpholin-2-yl)phenyl)nicotinamide hydrochloride]",0.0525,–,0.0042,–
